Laboratory results taken from patent publication US9611249B2, “1H-indazole-3-carboxamide compounds as glycogen synthase kinase 3 beta inhibitors” (AZIENDE CHIMICHE RIUNITE ANGELINI FRANCESCO A.C.R.A.F. …, priority 2012, dated 2017).

How the values were obtained:
Format in all cases: biochemical
[1] = target: c-Met kinase (h) (Homo sapiens (Human), UniProt P08581); assay: Kinase selectivity panel: c-Met kinase (h); settings: 10 μM in duplicate, read-out: % inhibition of control values
Procedure: (§1) (a) Compounds 1 and 2 were tested against a panel of 60 kinases in order to assess their selectivity. The assays were chosen taking into consideration the diversity of assay families.
(§2) Tested kinases were representative of following kinase sub-families: • protein-serine/threonine kinases; • protein-tyrosine kinases; • other kinases; and • atypical kinases.
(§3) Human recombinant kinases were incubated in the presence of specific peptide substrates plus ATP for different times (10, 15, 30, 60 or 90 minutes) at 22° C. Phosphorylated substrate was detected by LANCE or HTRF technology (CISBIO, MA, USA). The compounds were tested at 10 μM in duplicate.
(§4) The results are expressed as a percentage of inhibition of control specific activity obtained in the presence of the test compounds and are reported in the following Table 5.
(§5) (b) Compounds 3, 8, 29 and 31 were tested against the same panel of 60 kinases under the same conditions described above for compounds 1 and 2.
(§6) The results are expressed as a percent of inhibition of control specific activity obtained in the presence of the test compounds and are reported in the following Table 6.

[2] = target: FGFR4 kinase (h) (Homo sapiens (Human), UniProt P22455); assay: Kinase selectivity panel: FGFR4 kinase (h); settings: 10 μM in duplicate, read-out: % inhibition of control values
Procedure: as §1, §2, §3, §4, §5, §6

[3] = target: IGF1R kinase (h) (Homo sapiens (Human), UniProt P08069); assay: Kinase selectivity panel: IGF1R kinase (h); settings: 10 μM in duplicate, read-out: % inhibition of control values
Procedure: as §1, §2, §3, §4, §5, §6

[4] = target: IRK (h) (InsR) (Homo sapiens (Human), UniProt P06213); assay: Kinase selectivity panel: IRK (h) (InsR); settings: 10 μM in duplicate, read-out: % inhibition of control values
Procedure: as §1, §2, §3, §4, §5, §6

[5] = target: Ret kinase (h) (Homo sapiens (Human), UniProt P07949); assay: Kinase selectivity panel: Ret kinase (h); settings: 10 μM in duplicate, read-out: % inhibition of control values
Procedure: as §1, §2, §3, §4, §5, §6

[6] = target: Abl kinase (h) (Homo sapiens (Human), UniProt P00519); assay: Kinase selectivity panel: Abl kinase (h); settings: 10 μM in duplicate, read-out: % inhibition of control values
Procedure: as §1, §2, §3, §4, §5, §6

[7] = target: JAK2 (h) (Homo sapiens (Human), UniProt O60674); assay: Kinase selectivity panel: JAK2 (h); settings: 10 μM in duplicate, read-out: % inhibition of control values
Procedure: as §1, §2, §3, §4, §5, §6

[8] = target: Fyn kinase (h) (Homo sapiens (Human), UniProt P06241); assay: Kinase selectivity panel: Fyn kinase (h); settings: 10 μM in duplicate, read-out: % inhibition of control values
Procedure: as §1, §2, §3, §4, §5, §6

[9] = target: GSK3beta (h) (Homo sapiens (Human), UniProt P49841); assay: Kinase selectivity panel: GSK3beta (h); settings: GSK3beta (h); 10 μM in duplicate; read-out: % inhibition of control values
Procedure: as §1, §2, §3, §4, §6

[10] = target: DYRK1a (h) (Homo sapiens (Human), UniProt Q13627); assay: Kinase selectivity panel: DYRK1a (h); settings: 10 μM in duplicate, read-out: % inhibition of control values
Procedure: as §1, §2, §3, §4, §5, §6

[11] = target: CDC2/CDK1 (h) (cycB) (Homo sapiens (Human), UniProt P06493); assay: Kinase selectivity panel: CDC2/CDK1 (h) (cycB); settings: 10 μM in duplicate, read-out: % inhibition of control values
Procedure: as §1, §2, §3, §4, §5, §6

[12] = target: CDK2 (h) (cycA) (Homo sapiens (Human), UniProt P24941); assay: Kinase selectivity panel: CDK2 (h) (cycA); settings: 10 μM in duplicate, read-out: % inhibition of control values
Procedure: as §1, §2, §3, §4, §5, §6

[13] = target: CDK5/p35 (h) (Homo sapiens (Human), UniProt Q00535); assay: Kinase selectivity panel: CDK5/p35 (h); settings: 10 μM in duplicate, read-out: % inhibition of control values
Procedure: as §1, §2, §3, §4, §5, §6

[14] = target: ERK1 (h) (Homo sapiens (Human), UniProt P27361); assay: Kinase selectivity panel: ERK1 (h); settings: 10 μM in duplicate, read-out: % inhibition of control values
Procedure: as §1, §2, §3, §4, §5, §6

[15] = target: ERK2 (h) (P42mapk) (Homo sapiens (Human), UniProt P28482); assay: Kinase selectivity panel: ERK2 (h) (P42mapk); settings: 10 μM in duplicate, read-out: % inhibition of control values
Procedure: as §1, §2, §3, §4, §5, §6

[16] = target: p38delta kinase (h) (Homo sapiens (Human), UniProt O15264); assay: Kinase selectivity panel: p38delta kinase (h); settings: 10 μM in duplicate, read-out: % inhibition of control values
Procedure: as §1, §2, §3, §4, §5, §6

[17] = target: DAPK1 (h) (Homo sapiens (Human), UniProt P53355); assay: Kinase selectivity panel: DAPK1 (h); settings: 10 μM in duplicate, read-out: % inhibition of control values
Procedure: as §1, §2, §3, §4, §5, §6

[18] = target: Pim2 kinase (h) (Homo sapiens (Human), UniProt Q9P1W9); assay: Kinase selectivity panel: Pim2 kinase (h); settings: 10 μM in duplicate, read-out: % inhibition of control values
Procedure: as §1, §2, §3, §4, §5, §6

[19] = target: PhKgamma 2 (h) (Homo sapiens (Human), UniProt P15735); assay: Kinase selectivity panel: PhKgamma 2 (h); settings: 10 μM in duplicate, read-out: % inhibition of control values
Procedure: as §1, §2, §3, §4, §5, §6

[20] = target: Pim1 kinase (h) (Homo sapiens (Human), UniProt P11309); assay: Kinase selectivity panel: Pim1 kinase (h); settings: 10 μM in duplicate, read-out: % inhibition of control values
Procedure: as §1, §2, §3, §4, §5, §6

[21] = target: Akt1/PKBalpha (h) (Homo sapiens (Human), UniProt P31749); assay: Kinase selectivity panel: Akt1/PKBalpha (h); settings: 10 μM in duplicate, read-out: % inhibition of control values
Procedure: as §1, §2, §3, §4, §5, §6

[22] = target: PDK1 (h) (Homo sapiens (Human), UniProt O15530); assay: Kinase selectivity panel: PDK1 (h); settings: 10 μM in duplicate, read-out: % inhibition of control values
Procedure: as §1, §2, §3, §4, §5, §6

[23] = target: PKA (h) (Homo sapiens (Human), UniProt P17612); assay: Kinase selectivity panel: PKA (h); settings: 10 μM in duplicate, read-out: % inhibition of control values
Procedure: as §1, §2, §3, §4, §5, §6

[24] = target: PKCalpha (h) (Homo sapiens (Human), UniProt P17252); assay: Kinase selectivity panel: PKCalpha (h); settings: 10 μM in duplicate, read-out: % inhibition of control values
Procedure: as §1, §2, §3, §4, §5, §6

[25] = target: PKCbeta 1 (h) (Homo sapiens (Human), UniProt P05771); assay: Kinase selectivity panel: PKCbeta 1 (h); settings: 10 μM in duplicate, read-out: % inhibition of control values
Procedure: as §1, §2, §3, §4, §5, §6

[26] = target: PKCgamma (h) (Homo sapiens (Human), UniProt P05129); assay: Kinase selectivity panel: PKCgamma (h); settings: 10 μM in duplicate, read-out: % inhibition of control values
Procedure: as §1, §2, §3, §4, §5, §6

[27] = target: HGK (h) (MAP4K4) (Homo sapiens (Human), UniProt O95819); assay: Kinase selectivity panel: HGK (h) (MAP4K4); settings: 10 μM in duplicate, read-out: % inhibition of control values
Procedure: as §1, §2, §3, §4, §5, §6

[28] = target: DLK1 (h) (MAP3K12) (Homo sapiens (Human), UniProt Q12852); assay: Kinase selectivity panel: DLK1 (h) (MAP3K12); settings: 10 μM in duplicate, read-out: % inhibition of control values
Procedure: as §1, §2, §3, §4, §5, §6

[29] = target: IRAK4 (h) (Homo sapiens (Human), UniProt Q9NWZ3); assay: Kinase selectivity panel: IRAK4 (h); settings: 10 μM in duplicate, read-out: % inhibition of control values
Procedure: as §1, §2, §3, §4, §5, §6

[30] = target: IKKalpha (h) (Homo sapiens (Human), UniProt O15111); assay: Kinase selectivity panel: IKKalpha (h); settings: 10 μM in duplicate, read-out: % inhibition of control values
Procedure: as §1, §2, §3, §4, §5, §6

[31] = target: NEK7 (h) (Homo sapiens (Human), UniProt Q8TDX7); assay: Kinase selectivity panel: NEK7 (h); settings: 10 μM in duplicate, read-out: % inhibition of control values
Procedure: as §1, §2, §3, §4, §5, §6

[32] = target: AurA/Aur2 kinase (h) (Homo sapiens (Human), UniProt O14965); assay: Kinase selectivity panel: AurA/Aur2 kinase (h); settings: 10 μM in duplicate, read-out: % inhibition of control values
Procedure: as §1, §2, §3, §4, §5, §6

[33] = target: AurB/Aur1 kinase (h) (Homo sapiens (Human), UniProt Q96GD4); assay: Kinase selectivity panel: AurB/Aur1 kinase (h); settings: 10 μM in duplicate, read-out: % inhibition of control values
Procedure: as §1, §2, §3, §4, §5, §6

Chain of IGF1R kinase (h) (P08069 31-1367): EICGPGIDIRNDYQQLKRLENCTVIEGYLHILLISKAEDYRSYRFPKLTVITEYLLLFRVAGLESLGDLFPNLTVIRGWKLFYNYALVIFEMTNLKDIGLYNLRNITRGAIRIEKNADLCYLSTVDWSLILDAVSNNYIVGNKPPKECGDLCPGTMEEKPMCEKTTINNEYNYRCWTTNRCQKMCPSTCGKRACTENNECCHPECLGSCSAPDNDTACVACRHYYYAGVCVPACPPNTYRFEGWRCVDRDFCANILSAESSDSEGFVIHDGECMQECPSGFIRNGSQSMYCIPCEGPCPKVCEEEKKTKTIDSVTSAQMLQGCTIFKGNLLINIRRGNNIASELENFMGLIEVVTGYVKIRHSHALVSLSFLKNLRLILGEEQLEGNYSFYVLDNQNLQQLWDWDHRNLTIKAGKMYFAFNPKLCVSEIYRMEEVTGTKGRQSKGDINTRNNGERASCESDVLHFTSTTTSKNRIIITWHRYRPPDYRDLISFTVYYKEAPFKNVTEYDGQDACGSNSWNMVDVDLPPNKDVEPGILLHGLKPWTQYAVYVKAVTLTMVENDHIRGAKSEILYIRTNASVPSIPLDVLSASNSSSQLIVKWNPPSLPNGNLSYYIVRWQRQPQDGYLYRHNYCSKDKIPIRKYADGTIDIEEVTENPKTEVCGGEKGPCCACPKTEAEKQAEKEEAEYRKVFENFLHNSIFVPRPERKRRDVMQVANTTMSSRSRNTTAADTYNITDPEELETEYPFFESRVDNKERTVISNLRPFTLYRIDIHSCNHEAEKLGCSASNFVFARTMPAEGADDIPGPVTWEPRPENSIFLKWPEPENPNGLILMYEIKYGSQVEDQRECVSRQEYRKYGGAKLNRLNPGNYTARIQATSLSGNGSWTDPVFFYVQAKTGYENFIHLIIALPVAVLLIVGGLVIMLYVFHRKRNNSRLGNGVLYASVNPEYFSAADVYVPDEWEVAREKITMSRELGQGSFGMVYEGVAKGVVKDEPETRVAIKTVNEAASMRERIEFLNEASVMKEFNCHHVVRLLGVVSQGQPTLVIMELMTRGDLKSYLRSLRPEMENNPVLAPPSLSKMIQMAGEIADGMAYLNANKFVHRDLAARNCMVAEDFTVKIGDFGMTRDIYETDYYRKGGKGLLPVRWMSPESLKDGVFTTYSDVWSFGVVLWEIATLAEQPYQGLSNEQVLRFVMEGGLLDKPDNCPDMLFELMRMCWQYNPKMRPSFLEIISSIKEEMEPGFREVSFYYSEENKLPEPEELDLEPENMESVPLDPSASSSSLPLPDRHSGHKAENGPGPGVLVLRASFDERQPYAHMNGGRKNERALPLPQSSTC
Chain of FGFR4 kinase (h) (P22455 22-802): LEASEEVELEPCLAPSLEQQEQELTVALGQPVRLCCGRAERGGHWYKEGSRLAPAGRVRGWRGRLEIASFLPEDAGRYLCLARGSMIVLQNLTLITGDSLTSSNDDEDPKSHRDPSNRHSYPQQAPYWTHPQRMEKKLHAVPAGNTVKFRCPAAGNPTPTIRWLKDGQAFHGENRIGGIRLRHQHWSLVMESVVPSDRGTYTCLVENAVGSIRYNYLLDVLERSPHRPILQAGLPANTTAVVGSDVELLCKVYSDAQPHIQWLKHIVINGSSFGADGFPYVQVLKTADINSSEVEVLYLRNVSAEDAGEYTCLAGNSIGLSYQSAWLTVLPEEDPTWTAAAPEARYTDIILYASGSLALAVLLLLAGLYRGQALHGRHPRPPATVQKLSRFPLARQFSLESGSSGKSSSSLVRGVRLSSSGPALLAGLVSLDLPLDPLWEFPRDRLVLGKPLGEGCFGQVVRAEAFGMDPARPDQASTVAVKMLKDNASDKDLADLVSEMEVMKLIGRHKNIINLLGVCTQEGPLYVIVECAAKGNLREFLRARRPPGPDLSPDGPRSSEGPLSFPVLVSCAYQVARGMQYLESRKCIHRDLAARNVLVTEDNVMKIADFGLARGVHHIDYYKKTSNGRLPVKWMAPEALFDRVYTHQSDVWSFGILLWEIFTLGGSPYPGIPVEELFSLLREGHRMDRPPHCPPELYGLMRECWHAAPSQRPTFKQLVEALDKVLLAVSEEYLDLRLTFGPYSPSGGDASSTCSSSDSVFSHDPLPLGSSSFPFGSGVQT
Chain of c-Met kinase (h) (P08581 25-1390): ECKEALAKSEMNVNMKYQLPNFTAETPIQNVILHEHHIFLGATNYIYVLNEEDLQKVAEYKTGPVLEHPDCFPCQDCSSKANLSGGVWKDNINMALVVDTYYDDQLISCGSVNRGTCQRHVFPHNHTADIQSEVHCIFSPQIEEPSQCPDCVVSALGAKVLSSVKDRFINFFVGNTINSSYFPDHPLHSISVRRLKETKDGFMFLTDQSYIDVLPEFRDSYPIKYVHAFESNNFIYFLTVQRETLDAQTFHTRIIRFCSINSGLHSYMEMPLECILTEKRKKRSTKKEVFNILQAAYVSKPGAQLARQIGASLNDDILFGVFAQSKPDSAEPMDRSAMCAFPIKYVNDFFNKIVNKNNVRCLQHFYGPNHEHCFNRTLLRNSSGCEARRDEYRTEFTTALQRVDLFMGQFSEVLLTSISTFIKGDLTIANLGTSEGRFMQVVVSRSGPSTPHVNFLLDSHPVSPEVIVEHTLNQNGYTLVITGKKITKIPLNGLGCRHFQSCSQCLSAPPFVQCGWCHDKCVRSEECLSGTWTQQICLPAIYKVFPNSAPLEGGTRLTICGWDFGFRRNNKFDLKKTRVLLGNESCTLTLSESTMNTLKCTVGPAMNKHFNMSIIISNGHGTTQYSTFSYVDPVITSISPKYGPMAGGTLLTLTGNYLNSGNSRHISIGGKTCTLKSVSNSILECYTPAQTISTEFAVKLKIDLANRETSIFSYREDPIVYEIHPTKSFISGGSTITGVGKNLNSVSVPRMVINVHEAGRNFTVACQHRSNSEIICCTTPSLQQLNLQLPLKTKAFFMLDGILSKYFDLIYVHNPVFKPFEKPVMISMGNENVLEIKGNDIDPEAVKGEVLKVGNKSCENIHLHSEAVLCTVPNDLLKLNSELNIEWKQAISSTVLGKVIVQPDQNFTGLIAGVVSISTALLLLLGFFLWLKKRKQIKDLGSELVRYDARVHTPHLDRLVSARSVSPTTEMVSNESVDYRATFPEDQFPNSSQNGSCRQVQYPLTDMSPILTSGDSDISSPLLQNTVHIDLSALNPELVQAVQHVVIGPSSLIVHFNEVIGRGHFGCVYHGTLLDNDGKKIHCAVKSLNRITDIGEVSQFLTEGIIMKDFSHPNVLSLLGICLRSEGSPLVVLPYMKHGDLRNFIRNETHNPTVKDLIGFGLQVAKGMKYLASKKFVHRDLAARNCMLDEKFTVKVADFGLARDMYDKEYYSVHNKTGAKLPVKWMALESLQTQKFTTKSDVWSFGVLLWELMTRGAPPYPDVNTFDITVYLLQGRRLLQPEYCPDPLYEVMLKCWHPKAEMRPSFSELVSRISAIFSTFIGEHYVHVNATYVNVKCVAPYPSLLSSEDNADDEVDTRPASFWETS
Chain of GSK3beta (h) (P49841 whole entry): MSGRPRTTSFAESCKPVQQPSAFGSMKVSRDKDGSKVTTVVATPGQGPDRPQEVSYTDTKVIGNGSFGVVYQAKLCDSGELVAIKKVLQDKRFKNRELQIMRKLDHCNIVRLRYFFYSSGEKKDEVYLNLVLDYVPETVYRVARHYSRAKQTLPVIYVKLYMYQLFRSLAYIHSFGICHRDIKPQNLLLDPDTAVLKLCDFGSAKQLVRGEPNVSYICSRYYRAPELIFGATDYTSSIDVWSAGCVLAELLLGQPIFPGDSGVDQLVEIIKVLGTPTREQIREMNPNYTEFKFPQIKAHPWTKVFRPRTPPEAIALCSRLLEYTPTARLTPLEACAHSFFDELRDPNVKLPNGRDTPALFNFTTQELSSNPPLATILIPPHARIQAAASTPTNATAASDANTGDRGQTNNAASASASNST
Chain of p38delta kinase (h) (O15264 whole entry): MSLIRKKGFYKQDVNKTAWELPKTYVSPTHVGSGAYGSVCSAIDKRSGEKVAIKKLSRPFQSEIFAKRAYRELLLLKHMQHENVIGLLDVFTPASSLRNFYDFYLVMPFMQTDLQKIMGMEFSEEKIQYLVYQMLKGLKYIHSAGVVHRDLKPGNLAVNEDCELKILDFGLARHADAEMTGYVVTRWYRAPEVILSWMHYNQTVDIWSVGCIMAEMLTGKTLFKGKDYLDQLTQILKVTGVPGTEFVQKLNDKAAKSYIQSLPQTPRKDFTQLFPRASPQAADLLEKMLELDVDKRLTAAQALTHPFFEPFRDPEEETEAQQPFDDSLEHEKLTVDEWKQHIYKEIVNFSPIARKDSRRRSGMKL

Row | SMILES | inhibition at 10 µM [1] [%] | inhibition at 10 µM [2] [%] | inhibition at 10 µM [3] [%] | inhibition at 10 µM [4] [%] | inhibition at 10 µM [5] [%] | inhibition at 10 µM [6] [%] | inhibition at 10 µM [7] [%] | inhibition at 10 µM [8] [%] | inhibition at 10 µM [9] [%] | inhibition at 10 µM [10] [%] | inhibition at 10 µM [11] [%] | inhibition at 10 µM [12] [%] | inhibition at 10 µM [13] [%] | inhibition at 10 µM [14] [%] | inhibition at 10 µM [15] [%] | inhibition at 10 µM [16] [%] | inhibition at 10 µM [17] [%] | inhibition at 10 µM [18] [%] | inhibition at 10 µM [19] [%] | inhibition at 10 µM [20] [%] | also measured
1 | COc1ccc2[nH]nc(C(=O)NCC3CCN(CC(=O)O)CC3)c2c1 [Compound 1, [4-({[(5-methoxy-1H-indazol-3-yl)-carbonyl]amino}methyl)piperidin-1-yl]acetic acid] | 3 | 0 | 0 | 0 | 0 | 0 | 0 | 0 | 94 | 76 | 7 | 18 | 19 | 20 | 58 | 0 | 22 | 3 | 30 | 0 | inhibition at 10 µM [21]: 0%; inhibition at 10 µM [22]: 6%; inhibition at 10 µM [23]: 0%; inhibition at 10 µM [24]: 0%; inhibition at 10 µM [25]: 0%; inhibition at 10 µM [26]: 3%; inhibition at 10 µM [27]: 8%; inhibition at 10 µM [28]: 0%; inhibition at 10 µM [29]: 0%; inhibition at 10 µM [30]: 0%; inhibition at 10 µM [31]: 0%; inhibition at 10 µM [32]: 7%; inhibition at 10 µM [33]: 0%
2 | COc1ccc2[nH]nc(C(=O)NCC3CCN(CCC(=O)O)CC3)c2c1 [Compound 3] | 0 | 0 | 0 | 0 | 0 | 0 | 0 | 0 | 89 | 51 | 8 | 21 | 9 | 19 | 34 | 0 | 3 | 0 | 1 | 12 | inhibition at 10 µM [21]: 0%; inhibition at 10 µM [22]: 0%; inhibition at 10 µM [23]: 0%; inhibition at 10 µM [24]: 5%; inhibition at 10 µM [25]: 0%; inhibition at 10 µM [26]: 2%; inhibition at 10 µM [27]: 3%; inhibition at 10 µM [28]: 0%; inhibition at 10 µM [29]: 0%; inhibition at 10 µM [30]: 0%; inhibition at 10 µM [31]: 2%; inhibition at 10 µM [32]: 4%; inhibition at 10 µM [33]: 0%
